According to patent US20190328857A1, “CALR AND JAK2 VACCINE COMPOSITIONS” (IO Biotech ApS, priority 2016, published 2019):

Experiments:
Type in all cases: cell-based, human
[1] = test system: CALRLong1-specific T-cells; test: Intracellular cytokine staining of CALRLong1-specific T-cell culture stimulated with peptide; conditions: after three stimulations with autologous dendritic cells
Procedure: Fresh PBMCs were first enriched for CD14+ cells using MACS CD14 MicroBeads (Miltenyi Biotech GmbH, Bergisch Gladbach, Germany). This was considered day 0. The resulting monocyte-depleted cell culture was termed peripheral blood lymphocytes (PBL). The enriched cells were cultured using CellGro (CellGenix GmbH, Freiburg, Germany), and stimulated with GM-CSF (1000 U/ml) and IL-4 (250 U/ml) (both PeproTech, Rocky Hill, N.J., USA). The next day, to generate fast dendritic cells (fastDC), we treated half of the enriched cells with a maturation cocktail comprising IFN-γ (1000 U/ml) (PeproTech, Rocky Hill, N.J., USA), PolyI:C (20 μg/ml) (Sigma-Aldrich, St. Louis, Mo., USA) and CALRLong1 peptide. PBL were cultured overnight in X-VIVO medium (Lonza Group Ltd., Basel, Switzerland) and then stimulated with half of the fastDC. The other half of the fastDC were frozen for later use.
The other half of the enriched cells were cultured until day 7, at which time these cells were treated with the same maturation cocktail as above, to generate mature dendritic cells (mDC). The next day, these mDC were used to stimulate PBLs. On day 9, IL-2 (120 U/mL) (Novartis, Basel, Switzerland) and IL-7 (40 U/ml) (PeproTech, Rocky Hill, N.J., USA) was added. On day 14, we thawed the fastDC that had been frozen on day 2, and used these cells to stimulate the PBL. On day 16 and day 24 we added, IL-2 and IL-7 in the concentrations mentioned above.
At day 38 of the T-cell culture, we stimulated the T-cells with CALRLong1 peptide for 4 h and next isolated IFN-γ secreting cells using the MACS IFN-γ secretion assay. The isolated cells were expanded using a rapid expansion protocol. The vast majority of cells that reacted to CALRLong1 peptide stimulation were CD4^+ T-cells; thus, we isolated CD4^+ T cells from the REP culture using the EasySep Human CD4 isolation Kit (StemCell Technologies, Inc., Vancouver, BC, Canada). The enriched CD4^+ T-cells were then cloned by limiting dilution, and growing T-cell clones were rapidly expanded using feeder cells and high dose IL-2 (6000 u/ml). T-cell receptor clonotyping of the cloned cells was performed by denaturing gradient gel electrophoresis as previously described.
Frozen T-cells were thawed one day prior to assaying, and in experiments examining CD107a expression, a CD107a-PE antibody was added to cells directly after addition of peptide or target cells. After one hour of stimulation, protein-transport inhibitor Brefeldin A (BD Biosciences, San Jose, Calif., USA) was added to the cells which were then stimulated for four h. Cells were stained with CD3-APC-H7, CD4-FITC, CD8-PerCP, IFN-γ-APC, TNF-α-BV421 and Fixable Viability Stain 510 (BD Biosciences, San Jose, Calif., USA), permeabilized and washed with Permeabilization Reagent/Diluent and fixation-permeabilization buffer (AH Diagnostics, Aarhus, Denmark). Cells were acquired with a FACS Canto II (BD Biosciences) and analyzed using FACSDiva software. All effector cell stimulations were run in triplicate wells if not otherwise specified.

PBMC from healthy donors [2] = test: IFN-γ ELISPOT on PBMC from healthy donors; conditions: for healthy donors with a significant response in IFN-γ ELISPOT / healthy donors with a significant response in IFN-γ ELISPOT, percentage: of 21 (CALRLong1), 23 (CALRLong2), 9 (CALRLong4), 7 (CALRLong5) analyzed
Source text: (§1) The ELISPOT assay is based on the detection of antigen induced release of cytokines—most often IFN-γ—by single T-cells upon triggering of its T-cell receptor. Reactivity of a single T-cell can be detected and quantified via binding of the respective cytokine on special nitrocellulose filter plates. When a T-cell recognizes the peptide epitope examined, the T-cell releases cytokines that are detected by a colorimetric reaction using an enzyme conjugated to a secondary cytokine specific antibody. The reaction product is visible as a spot. Ideally, each spot represents the cytokines secreted by a single activated cell. ELISPOTs were performed and analyzed as described previously (Munir et al., 2013). PBMCs were tested in different concentrations to ensure an optimal response. The distribution-free resampling method, described by Moodie et al., was used for statistical analyses and a p-value ≤0.05 was deemed a T-cell response (Moodie et al., 2010).
PBMC from healthy donors were analyzed by IFN-γ ELISPOTs as described in Example 1 for immune responses against the CARL-mutant epitopes CALRLong1 ([…]), CALRLong2 ([…]), CALRLong4 ([…]) and CALRLong5 ([…]). […]

[3] = test system: PBMCs from the CALRmut donor; test: Spontaneous ex-vivo ELISPOT, 48 hour assay; conditions: high background, rules of Moodie et al.
Procedure: We established a CALRLong1-specific T-cell culture from a CALRmut patient with a strong […] T-cell response against CALRLong1 peptide. PBL were stimulated three times with autologous dendritic cells, and T-cells were analyzed using intracellular cytokine staining (ICS). […] However, CD4^+ T cells responded to CALRLong1 (FIG. 7). […] Since CALRLong4 peptide comprises the shared 36 amino acid C-terminus found in all CALRmut patients, we tested PBMCs from the donor for a spontaneous ex-vivo ELISPOT response in a 48 hour assay.

[4] = test system: PBMC from CALR-mutated MPN patients; test: IFN-γ ELISPOT for spontaneous T-cell responses in PBMC from CALR-mutated MPN patients
Source text: The study was approved by the local ethics committee, and all patients signed informed consent, in accordance with the Helsinki Declaration before study participation. We included 31 CALRmut MPN patients with the following diagnoses: ET (n=13), PMF (n=12), post-ET MF (n=4), or prefibrotic MF (n=2). Peripheral blood mononuclear cells (PBMC) were isolated with Lymphoprep and frozen in fetal calf serum with 10% dimethyl sulfoxide. First, we scrutinized PBMC from two MPN patients for the presence of spontaneous T-cell responses against two CALR derived peptides, CALR Long1 ([…], SEQ ID NO: 2) and CALR Long2 ([…], SEQ ID NO: 3) using the highly sensitive and solid interferon gamma (IFN-γ) Enzyme-Linked ImmunoSPOT (ELISPOT) secretion assays (FIGS. 1A and 1C). The ELISPOT has proven to be the central assay in studies focusing on identification on novel tumor antigens by the characterization of novel tumor antigen responses in PBMC from cancer patients. Thus, this assay has previously been utilized for the identification of novel tumor antigens based on spontaneous immunity in cancer patients (Andersen et al., 2005).
as §1
After the promising responses in the first two patients we analyzed PBMC from additional 29 CALR-mutated MPN patients. […] Of the 24 evaluable patients, 10 had ET and 14 had MF; the latter group comprised 11 patients with PMF, 2 with post-ET MF, and 1 with prefibrotic MF. […] Furthermore, we examined PBMC from two patients in a tumor necrosis factor alpha (TNF-α) ELISPOT.

PBMC from healthy donors [5] = test: TNF-α ELISPOT on PBMC from healthy donors; conditions: ten healthy controls analyzed per peptide
Source text: Of note, all patients with a TNF-α response against CALRLong1 and CALRLong2 did also display an IFN-g response in ELISPOT (FIGS. 14-15).

[6] = test system: PBMC / T-cells from CALRmut MPN patients; test: Intracellular cytokine staining of patient PBMC and of DC-stimulated T-cell culture; conditions: PBMC from patient C39
Source text: Next, we chose to analyze PBMC from four patients with a response against CALR Long1 and CALR Long2 peptides using intracellular cytokine staining. Although this method is less sensitive than ELISPOT, it allows elucidating which immune cells secrete the cytokine identified in ELISPOT. Hereby, we could determine whether the reacting cells were T-cells and, if so, if the responding cells were CD4 T-cells or CD8 T-cells. In short, cells were stimulated with CALR Long1 or with a scrambled peptide ([…]) as control. For surface markers we employed 4 μl NIR, 10 μl CD4 PerCP, 2 μl CD8 Pacific Blue, and 10 μl CD3 FITC and for intracellular staining we used 2 μl anti-TNF-α and anti IFN-γ antibodies conjugated with either PE-Cy7 or APC. Washing, permeabilization and staining procedures followed previously described methods (Munir, Andersen et al., 2013). […] To confirm that the responses identified indeed were T-cell responses against CALR Long1, we generated dendritic cells from patient C42 using previously described methods. Autologous PBMC were stimulated three times with the dendritic cells, which had been pulsed with CALR Long1, and we hereby generated a CALR Long1 specific T-cell culture. […] The frequent detection of T-cell responses indicate, that the CALR mutations encode highly immunogenic cancer antigens, which represent ideal targets for anti-cancer immune therapy.

Row | Sequence | response of CD4^+ T cells of the CALRLong1 bulk culture to peptide stimulation [1] | immune responses of healthy donors in IFN-γ ELISPOT (PBMC from healthy donors [2]) | healthy donors with a significant response in IFN-γ ELISPOT (PBMC from healthy donors [2]) | healthy donors with a significant response in IFN-γ ELISPOT, percentage (PBMC from healthy donors [2]) | spontaneous ex-vivo ELISPOT response [3] | patients that responded in IFN-γ ELISPOT, percentage ([4]; 18 evaluable patients for CALR Long1, 24 for CALR Long2) | patients that responded in IFN-γ ELISPOT ([4]; 18 evaluable patients for CALR Long1, 24 for CALR Long2, p-value ≤0.05 deemed a T-cell response) | response confirmed in additional ELISPOT ([4]; samples from 5 of the responding patients retested) | healthy controls with a significant TNF-α response (PBMC from healthy donors [5]) | type of T-cell response, intracellular cytokine staining [6]
1 | RRMRRTRRKMRRKMSPARPRTSCREACLQGWTEA (listed as Homo sapiens) [CALRLong4] | reacted | strong immune responses | 9 | 100% | significant response | – | – | – | – | –
2 | TRRKMRRKMSPARPRTSCREACLQGWTEA (listed as Homo sapiens) [CALRLong2] | did not respond | strong immune responses | 18 | 78% | – | 42% | 10 patients | 4 patients | Five | CD4 T-cell response
